Data on three compounds can be found in US20240353769A1, “ELECTROPHOTOGRAPHIC PHOTORECEPTOR, COATING LIQUID FOR FORMING ELECTROPHOTOGRAPHIC PHOTORECEPTOR PROTECTIVE LAYER, COMPOUND, ELECTROPHOTOGRAPHIC PHOTORECEPTOR CARTRIDGE, AND IMAGE FORMATION DEVICE” (MITSUBISHI CHEMICAL CORPORATION, priority 2021, published 2024).

The structures appear in SMILES notation.

The data set in a line: Evaluation of solubility in organic solvent (visual). It counts as physicochemical. On the set-up: key: A (good): The compound dissolved completely at room temperature.; B (poor): Undissolved compound was observed at room temperature. To be noted: eight parts by mass in 100 parts by mass mixed solvent (19 mass % THF, 38 mass % TL, 43 mass % 2-PrOH), 25° C., stirred 10 minutes. As to the method:
To 100 parts by mass of a mixed solvent of tetrahydrofuran (appropriately abbreviated to as THF below), toluene (appropriately abbreviated to as TL below) and 2-propanol (appropriately abbreviated to as 2-PrOH below) (19 mass % THF, 38 mass % TL and 43 mass % 2-PrOH, 25° C.), eight parts by mass of the compound 1 or 2 or the comparative compound 1 was added, and without heating or cooling, the mixtures were stirred with a rotor for 10 minutes. Then, the dissolution states were observed visually, and the solubility was evaluated by the following criteria.

On to `C=C(C)C(=O)OCC(COC(=O)C(=C)C)OC(=O)CCC(=O)Oc1cccc(C(C)C2=C/C(=C3/C=C(C(C)c4cccc(OC(=O)CCC(=O)OC(COC(=O)C(=C)C)COC(=O)C(=C)C)c4)C(=O)c4ccccc43)c3ccccc3C2=O)c1` (stereo not drawn) [Compound 2], for which the Solubility entry is given as “A”.
With `CCC(C)(C)C1=C/C(=C2/C=C(C(C)(C)CC)C(=O)c3ccccc32)c2ccccc2C1=O` [Comparative Compound 1, reference compound], the Solubility entry is recorded as “B”.
As for `C=CC(=O)OCCOC(=O)CCC(=O)Oc1cccc(C(C)C2=C/C(=C3/C=C(C(C)c4cccc(OC(=O)CCC(=O)OCCOC(=O)C=C)c4)C(=O)c4ccccc43)c3ccccc3C2=O)c1` (stereo not drawn) [Compound 1], the Solubility result is “A”.
